Assay results published in US11123413B2, “Carbapenemases for use with antibiotics for the protection of the intestinal microbiome” (priority 2015, dated 2021).
Where “and” joins values, the source holds several entries; their conditions need not be identical. Equal values may be shown once.

Key:
gut microbiome = tested on: gut microbiome; parameters: species or system Yorkshire piglets; conditions: in vivo
Experimental: The animals were treated with ertapenem (30 mg/kg) via intravenous infusion one a day for a total of 7 days.
Two pre-treatment fecal samples were obtained, the first 4 days after the animals arrived at the animal treatment facility (Day −7), and the second 7 days after arrival (Day −4). An additional 3 fecal samples were collected at Day 4, Day 8, and Day 9. The fecal samples were collected using the OMNIgene GUT sample collection kits (OMR-200, DNA Genotek, Ontario, Canada) and stored at room temperature away from light until all samples were collected. DNA isolated from the fecal samples was subjected to deep sequencing of the intestinal microbiome and analyses.
DNA was isolated from the fecal samples and subjected to whole genome shotgun sequencing using an Illumine HiSeq system with a target of 20 million 100 bp single reads per sample. […]
The percent similarity based on the relative bacterial strain abundance was calculated. […] Animals began ertapenem treatment on Day 1 and the percent similarity decreased every day the animals were evaluated. […]
A statistical analysis was performed to determine the probability that the microbiomes before and after antibiotic treatment remained the same or were different. The microbiome sequence data were analyzed using a parameterization of the Dirichlet-Multinomial distribution (La Rosa et al., 2012) to perform a Likelihood Ratio Test. […]

[1] = Oral P2A and intravenous meropenem in jejunal-fistulated dogs; type: in vivo, laboratory beagles; conditions: peak level in dog jejunum; meropenem 30 mg/kg IV alone; individual dogs
Experimental: The ability of P2A to degrade meropenem in the dog intestinal tract was evaluated using laboratory beagles that had permanent jejunal fistulas. The fistulas allowed the repeated collection of jejunal chyme specimens from these animals. Dogs were treated with peroral P2A (1 mg/kg) in a liquid formulation (PBS buffer), and/or intravenous meropenem (30 mg/kg). Serum samples were collected and serum meropenem levels quantified. Jejunal chyme samples were collected and meropenem and P2A levels were quantified. Meropenem levels in serum and chyme were measured using a plate diffusion method using meropenem susceptible Micrococcus luteus TS504 as the test strain. P2A activity levels in chyme were determined spectrophotometrically using meropenem as a substrate. Meropenem hydrolysis was monitored at a wavelength of 297 nm.

| SMILES | microbiome diversity (percent similarity of strain relative abundance) (gut microbiome) | Meropenem [1] |
| --- | --- | --- |
| C[C@@H](O)[C@H]1C(=O)N2C(C(=O)O)=C(S[C@@H]3CN[C@H](C(=O)Nc4cccc(C(=O)O)c4)C3)[C@H](C)[C@H]12 [ertapenem] | causes a loss of diversity in the microbiome | – |
| C[C@@H](O)[C@H]1C(=O)N2C(C(=O)O)=C(S[C@@H]3CN[C@H](C(=O)N(C)C)C3)[C@H](C)[C@H]12 [Meropenem] | – | 3.0 ug/ml (2×) and 3.2 ug/ml |
